The compounds below were run against T1, Lysyl oxidase (Bos taurus, UniProt P33072) (assay: Lysyl oxidase inhibition assay (fluorometric, cadaverine substrate, homovanillic acid/horseradish peroxidase)). Details: lysyl oxidase preparation from bovine aorta, 10 minutes at 55°C, borate buffer pH = 8.2, read-out: IC₅₀.
T1 construct: The supernatant with lysyl oxidase activity is saved; from tissue; host or cells: bovine aorta (4 M urea extract)
T1 sequence (P33072 170-418): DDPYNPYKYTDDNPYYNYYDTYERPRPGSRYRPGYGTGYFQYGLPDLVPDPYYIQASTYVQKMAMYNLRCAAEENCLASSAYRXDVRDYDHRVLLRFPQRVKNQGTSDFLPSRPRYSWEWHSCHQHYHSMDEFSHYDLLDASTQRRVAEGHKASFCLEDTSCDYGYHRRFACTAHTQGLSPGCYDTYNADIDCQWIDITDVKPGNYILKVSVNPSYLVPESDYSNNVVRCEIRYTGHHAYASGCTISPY
Format: biochemical
Method: Lysyl oxidase preparation is obtained from bovine aorta by the procedures modified from M. A. Williams and H. M. Kagan, Anal. Biochem. 149, 430 - 437 (1985) and H. M. Kagan and K. A. Sullivan, Methods in Enzyml. 82, 637 - 650 (1982). The aorta is obtained fresh on the day of the enzyme preparation and is maintained at 4°C for the duration of its use in the experiments. The aorta is ground fine and is homogenized for 90 seconds in buffer (2.5 ml of a buffer consisting of 16 mM potassium phosphate and 1 mM phenylmethylsulfonyl fluoride/g of tissue) with 0.15 M NaCl added, then the mixture is centrifuged (20 minutes at 11,000 x g). The homogenization followed by centrifugation procedure is repeated with buffer plus 0.15 M NaCl, buffer alone, and buffer plus 1 M urea. After homogenization in 1 M urea, the mixture is stirred for 1 hour prior to centrifugation. The resulting pellet is homogenized in buffer plus 4 M urea, stirred for 18 hours, and centrifuged. The supernatant with lysyl oxidase activity is saved. The tissue is homogenized in buffer plus 4 M urea, stirred overnight, and centrifuged twice more. The supernatants with lysyl oxidase activity are saved.
The assay is adopted from that of P. C. Trackman, et al., Anal. Biochem. 113, 336 - 342 (1981). Each assay consists of two tubes, one that contains 0.2 mM β-aminopropionitrile, BAPN, from the start and one to which BAPN is added to quench the reaction. Lysyl oxidase preparation (0.150 ml), urea (0.300 ml, 4 M), buffer (0.930 ml, 200mM borate at pH = 8.2), homovanillic acid (0.020 ml of 50 mM solution), and horseradish peroxidase (0.010 ml of Sigma Type II at 5 mg/ml protein) are incubated for 2 minutes at 55°C in a test tube. Cadaverine (0.100 ml of 150 mM) and test compound, if any, is added and the incubation continued at 55°C for an additional 10 minutes. The test tubes containing this mixture are then cooled in a ice bath after adding BAPN to any tubes not containing it. The difference in fluorescence (excitation 315 nm and emission 425 nm) between corresponding tubes that received BAPN at 0 minutes and at 10 minutes is a measure of enzyme activity. A standard curve to determine the amount of cadaverine converted by lysyl oxidase is prepared as follows. Assay mixtures containing BAPN are made up as described and known amounts of hydrogen peroxide are added simultaneously with cadaverine and the fluorescence changes after 10 minutes reaction are determined.
Using this method the lysyl oxidase inhibiting activity expressed as IC₅₀ (inhibitory concentration), that is the concentration of test compound required to inhibit the enzyme activity by 50 per cent, was determined for various compounds of this invention.

Structure (SMILES) | IC50 [nM]
NC/C(=C/F)c1cccs1 [(Z)-2-(2-Thienyl)-3-fluoroallylamine] | 1
CCNC/C(=C/F)c1ccc(OC)c(OC)c1 [(E)-N-Ethyl-2-(3,4-dimethoxyphenyl)-3-fluoroallylamine] | 1000
NC/C(=C/F)CCc1ccc(F)cc1 [(E)-2-(4-Fluorophenethyl)-3-fluoroallylamine] | 0.1
NC/C(=C/F)c1ccccc1 [(E)-2-Phenyl-3-fluoroallylamine] | 1
CCCCCCCCCCC/C(=C\F)CN [(E)-2-Undecyl-3-fluoroallylamine] | 100
COc1ccc(/C(=C\F)CN)cc1OC [(E)-2-(3,4-Dimethoxyphenyl)-3-fluoroallylamine] | 100

Results, then the compound that gave them:

IC50 [nM] | Structure (SMILES)
10 | CC(C)C/C(=C\F)CN [(E)-2-Isobutyl-3-fluoroallylamine]
0.1 | NC/C(=C\F)CSc1ccccc1 [(E)-2-(Thiophenoxymethyl)-3-fluoroallylamine]
1 | NC/C(=C/F)COc1ccc(Cl)c(Cl)c1 [(Z)-2-(3,4-Dichlorophenoxymethyl)-3-fluoroallylamine]
100 | CC(C)C/C(=C\Cl)CN [(E)-2-Isobutyl-3-chloroallylamine]
0.1 | COc1ccc(CCC/C(=C\F)CN)cc1OC [(E)-2-(3,4-Dimethoxyphenylpropyl)-3-fluoroallylamine]
100 | NC/C(=C/Cl)c1ccccc1 [(E)-2-Phenyl-3-chloroallylamine]
10 | NC/C(=C/Cl)CCc1ccccc1 [(E)-2-Phenethyl-3-chloroallylamine]

From EP0330218B1, “Inhibitors of lysyl oxidase” (MERRELL DOW PHARMACEUTICALS INC., priority 1988, dated 1989)
